Test results reported in patent US3995055A, “Method for treating peptic ulcers” (priority 1975, dated 1976).
“Also recorded” adds a separate entry of the source. Counter-ions that a name gives are not always drawn.

Legend:
[1] = system: Shay ulcers; experiment: Shay Ulcer Test by Intraperitoneal Administration; format: in vivo, Donryu rats; settings: Rattus norvegicus, ip, 18 h, read-out: Inhibitory Ratio; for inhibition in vivo at 350 mg/kg: 350 mg/Kg intraperitoneally in 0.5% CMC
Experimental: (§1) Donryu rats each weighing 200 to 240 g (six in each group) were starved for 48 hours, and ligated at a portion of the duodenum near the pylorus by the method of Shay et al (see Gastroenterology, 54, 43 (1945)). Immediately after the ligation, DV-1006 was orally administered to the rats at a dosage of 300 mg/Kg. After 18 hours, the abdomen of each of the rats was incised, and the stomach was removed.
Some typical compounds of formula (I) were tested on Shay ulcers in the same way as described in Example 2 except that each of the compounds was suspended in a 0.5% aqueous solution of carboxymethyl cellulose and administered intraperitoneally.

[2] = system: acetic ulcers; experiment: 10% Acetic Acid Ulcer Test; format: in vivo, Wistar rats; settings: for Effectiveness on Acetic Ulcer (defensive factors): Table 1
Experimental: Each of the drugs shown in FIG. 1 was orally administered to the rats once a day for 8 days starting on the date on which the acetic acid was injected. On the ninth day the rats were killed under ether anaesthesia. The stomach of each rat was removed, and opened along the greater curvature. The ulcer index was measured by means of slide calipers, and then the glandular stomach tissue was homogenized by adding a suitable amount of a physiological salt solution, and centrifuged for 20 minutes at a rate of 12,000 rpm.

[3] = system: carbachol stimulation; experiment: Carbachol stimulation in the Gosh and Schild method; format: in vivo
Excerpt: (§2) Incidentally, it appears from the above table that anticholinergic agents produce […] those produced by DV-1006. […] From a pharmacological standpoint, DV-1006 has the activity selectively inhibiting the secretion of pepsin without affecting acidity and the activity of pepsin itself.

[4] = system: clamping-cortisone ulcers; experiment: Clamping-Cortisone Ulcer Test; format: in vivo, rats; settings: for Effectiveness on Clamping-Cortisone Ulcer (defensive factors): Table 1
Experimental: (§3) Each of the drugs shown in FIG. 2 was administered orally once in a day for 14 days starting on the day on which the aluminum metal plate was removed. On the fifteenth day, the rats were killed under ether anaesthesia, and the ulcer index and the mucopolysaccharase activity in the stomach tissue were measured.
Then, 5 mg/Kg of hydrocortisone acetate was intramuscularly injected into the rats once a day for 7 days starting on the day on which the aluminum metal plate was removed. Each of the agents shown in FIG. 3 was administered orally to the rats once a day for 11 days starting on the day on which the administration of hydrocortisone acetate was stopped.

[5] = system: pepsin secretion; experiment: Pepsin Secretion Inhibition Test (beef bouillon pot-au-feu soup stimulating test); format: in vivo, Heidenhain pouch dogs; settings: 150 mg/Kg orally, second stimulation 75 minutes later; FIG. 4
Experimental: After oral administration (first stimulation) of 70 ml of a mixture (100 ml) of 6 g of beef bouillon and 6 g of pot-au-feu soup, gastric juice was extracted every 15 minutes. When the secretion of gastric juice returned almost to the value before the stimulation, DV-1006 was orally administered at a dosage of 150 mg/Kg. The second stimulation was given 75 minutes later in the same way as in the first stimulation, and the amount of gastric juice secreted and the amount of pepsin secreted were measured [by the modified method of Anson-Maskey (see J. Gen. Physiol., 16, 59 (1932))] with the passage of time.

[6] = system: gastric ulcers; experiment: Clinical test in gastric ulcer patients; format: in vivo
Experimental: Further, in order to confirm the anti-ulcer activities of the compounds of the general formula (I), clinical tests were also conducted using DV-1006 as a representative example of the compounds of the general formula (I). These clinical tests were performed on patients with gastric ulcers at National Zentsuji Hospital in Tokushima Prefecture, Japan.
30 gastric ulcer patients at the Internal Treatment Department of National Zentsuji Hospital in Tokushima Prefecture, Japan, who had been so diagnosed by X-ray and endoscopes, were treated for 8 weeks using an oral administration of DV-1006 at a dosage of 200 mg three times per day. At the end of the 8-week period, 21 patients were completely cured (70%), the condition of 7 patients had been alleviated (23%).

[7] = system: drug ulcers; experiment: Drug Ulcer Test (indomethacin, aspirin, phenylbutazone); format: in vivo, rats; settings: for Inhibitory Ratio, Aspirin ulcer: aspirin 300 mg/Kg; for Inhibitory Ratio, Indomethacin ulcer: indomethacin 25 mg/Kg; for Inhibitory Ratio, Phenylbutazone ulcer: phenylbutazone 200 mg/Kg; for Effectiveness on Drug Ulcer (defensive factors): Table 1
Experimental: Female rats each weighing about 150 g (5 in each group) were starved for 20 hours, and then DV-1006 was administered to the rats. After one hour, 25 mg/Kg of indomethacin, 300 mg/Kg of aspirin and 200 mg/Kg of phenylbutazone, respectively, were administered orally to the rats and the rats were further starved for 5 hours. The stomach of each of the rats was removed, and the ulcer index was measured.
For comparison, the above procedure was repeated except that gefarnate and aluminum sucrose sulfate were used in their basic customary dosages.

[8] = system: clamping ulcers; experiment: Clamping Ulcer Test; format: in vivo, Wistar male rats; settings: for Effectiveness on Clamping Ulcer (defensive factors): Table 1
Experimental: as §3

[9] = system: Shay ulcers; experiment: Shay Ulcer Test (oral administration); format: in vivo, Donryu rats; settings: for inhibitory ratio (Shay ulcer): 18 hours after ligation; for Effectiveness on Shay Ulcer (aggressive factors): Table 1
Experimental: as §1
In the same way as described above, gefarnate, a conventional anti-ulcer agent, was administered to the rats at a dosage of 100 mg/Kg.

[10] = system: gastric juice; experiment: Mode of activity: action on gastric juice; parameters: key: the symbol (+) shows that a particular agent has the indicated activity; the symbol (-) shows that the particular agent does not have the indicated activity; symbol (±) shows that the particular agent has a slight activity
Excerpt: As stated above, DV-1006 acts very strongly both on the aggressive factors and the defensive factors as compared with conventional anti-ulcer agents. […] In the treatment of peptic ulcers, the action of an agent on the gastric juice can be classified roughly into the following five categories: […]

[11] = General anticholinergic activities
Excerpt: as §2

## NC[C@H]1CC[C@H](C(=O)Oc2ccccc2)CC1
[1]
  inhibition in vivo at 350 mg/kg: 84%

## NC[C@H]1CC[C@H](C(=O)Oc2ccc(C=CC(=O)O)cc2)CC1
[1]
  inhibition in vivo at 350 mg/kg: 76%

## COc1cc(C=O)ccc1OC(=O)[C@H]1CC[C@H](CN)CC1
[1]
  inhibition in vivo at 350 mg/kg: 84%

## NC[C@H]1CC[C@H](C(=O)Oc2ccc(-c3ccccc3)cc2)CC1
[1]
  inhibition in vivo at 350 mg/kg: 58%

## NC[C@H]1CC[C@H](C(=O)Oc2ccc3ccccc3c2)CC1
[1]
  inhibition in vivo at 350 mg/kg: 84%

## NC[C@H]1CC[C@H](C(=O)Oc2ccc(C(=O)O)cc2)CC1
[1]
  inhibition in vivo at 350 mg/kg: 71%

## NC[C@H]1CC[C@H](C(=O)Oc2ccc(CC(N)C(=O)O)cc2)CC1 (stereo partly shown)
[1]
  inhibition in vivo at 350 mg/kg: 71%

## NC[C@H]1CC[C@H](C(=O)Oc2ccc(Cl)cc2)CC1
[1]; 175 mg/Kg intraperitoneally in 0.5% CMC
  inhibition in vivo at 175 mg/kg: 62%

## NC[C@H]1CC[C@H](C(=O)Oc2ccc(CCC(=O)O)cc2)CC1 [DV-1006, 4'-(2-carboxyethyl)phenyl.trans-4-aminomethylcyclohexane carboxylate]
[2]; FIG. 1
  dose-response of action on acetic acid ulcers: showed a dose-response
[2]
  Effectiveness on Acetic Ulcer (defensive factors): +
[2]; glandular stomach tissue, ninth day, FIG. 1
  activity of the mucopolysaccharase in the ulcer portion: reduced
[2]; oral once a day for 8 days, ninth day, FIG. 1
  action on ulcers caused by acetic acid (visual ulcer indices): marked inhibitory action; also recorded: especially strong action
[3]
  inhibitory activity on carbachol stimulation: does not exhibit any inhibitory activity
[4]
  Effectiveness on Clamping-Cortisone Ulcer (defensive factors): +
[4]; model of chronic ulcers
  action on clamping-cortisone ulcers: especially strong action
[4]; oral once a day for 11 days, twentieth day, FIG. 3
  action on the activity of β-glucuronidase in stomach tissue: especially significant inhibitory action
[5]
  amount of gastric juice secreted: reduced
  pepsin secretion: markedly inhibited
[6]; oral 200 mg three times per day, 8 weeks
  side-effects in patients: No side-effects were observed
[6]; orally for several days at 300 to 1200 mg/day
  curing effect on peptic ulcers: very marked curing effect
[7]; 300 mg/Kg p.o.
  Inhibitory Ratio, Aspirin ulcer: 65.3%
  Inhibitory Ratio, Indomethacin ulcer: 30.2%
  Inhibitory Ratio, Phenylbutazone ulcer: 70.0%
[7]
  Effectiveness on Drug Ulcer (defensive factors): +
[8]
  Effectiveness on Clamping Ulcer (defensive factors): +
[8]; oral once a day for 14 days, fifteenth day, FIG. 2
  action on β-glucuronidase in stomach tissue: especially significant inhibitory action
[9]; 300 mg/Kg orally, method of Adami et al.
  inhibitory ratio (Shay ulcer): 100%
[9]
  Effectiveness on Shay Ulcer (aggressive factors): +
[10]; activity of controlling gastric juice
  Action on Gastric Juice: Amount of Gastric Juice: +
[10]; inhibitory action on acids
  Action on Gastric Juice: Acids Activity: -
[10]; inhibitory action on the activity of pepsin itself
  Action on Gastric Juice: Pepsin Activity: -
[10]; inhibitory action on the secretion of acids
  Action on Gastric Juice: Acid Secretion: ±
[10]; inhibitory action on the secretion of pepsin
  Action on Gastric Juice: Pepsin Secretion: +
[11]
  general anticholinergic activities: does not show general anticholinergic activities

## CN1[C@@H]2CC[C@H]1C[C@@H](OC(=O)C(CO)c1ccccc1)C2 (stereo partly shown) [atropine sulfate]
[2]
  Effectiveness on Acetic Ulcer (defensive factors): +
[7]
  Effectiveness on Drug Ulcer (defensive factors): -
[9]
  Effectiveness on Shay Ulcer (aggressive factors): +

## NC[C@H]1CC[C@H](C(=O)Oc2ccc(CCC(=O)O)cc2)CC1 [drawing 3]
[1]
  inhibition in vivo at 350 mg/kg: 70%

## CC(C)=CCC/C(C)=C/CC/C(C)=C/CCC(=O)OC/C=C(\C)CCC=C(C)C [gefarnate]
[2]
  Effectiveness on Acetic Ulcer (defensive factors): -
[4]
  Effectiveness on Clamping-Cortisone Ulcer (defensive factors): +
[7]; 100 mg/Kg p.o.
  Inhibitory Ratio, Aspirin ulcer: 42.8%
  Inhibitory Ratio, Indomethacin ulcer: 29.0%
  Inhibitory Ratio, Phenylbutazone ulcer: 31.5%
[7]
  Effectiveness on Drug Ulcer (defensive factors): +
[8]
  Effectiveness on Clamping Ulcer (defensive factors): +
[9]; 100 mg/Kg orally
  inhibitory ratio (Shay ulcer): 83%
[9]
  Effectiveness on Shay Ulcer (aggressive factors): -

## aluminum sucrose sulfate
[2]
  Effectiveness on Acetic Ulcer (defensive factors): +
[4]
  Effectiveness on Clamping-Cortisone Ulcer (defensive factors): -
[7]; 1000 mg/Kg p.o.
  Inhibitory Ratio, Aspirin ulcer: 38.6%
  Inhibitory Ratio, Indomethacin ulcer: 40.0%
  Inhibitory Ratio, Phenylbutazone ulcer: 38.0%
[7]
  Effectiveness on Drug Ulcer (defensive factors): +
[8]
  Effectiveness on Clamping Ulcer (defensive factors): +
[9]
  Effectiveness on Shay Ulcer (aggressive factors): +
